Measurements as given in ChEMBL document CHEMBL4825704, “Withanolide Derivative 2,3-Dihydro-3β-methoxy Withaferin-A Modulates the Circadian Clock via Interaction with RAR-Related Orphan Receptor α (RORa)” (J Nat Prod, 2021).
Active and inactive are the calls of the source. The calls are words filed in the database; no cut-off is given here.

Legend:
[1] = target: T1, Nuclear receptor ROR-alpha (Mus musculus) (UniProt P51448); assay: Agonist activity at RORalpha in mouse NIH3T3 cells at 1 to 1000 uM incubated for 24 hrs by luminescence based assay; format: cell-based; conditions: dose 1-1000 µM
T1 sequence (whole entry): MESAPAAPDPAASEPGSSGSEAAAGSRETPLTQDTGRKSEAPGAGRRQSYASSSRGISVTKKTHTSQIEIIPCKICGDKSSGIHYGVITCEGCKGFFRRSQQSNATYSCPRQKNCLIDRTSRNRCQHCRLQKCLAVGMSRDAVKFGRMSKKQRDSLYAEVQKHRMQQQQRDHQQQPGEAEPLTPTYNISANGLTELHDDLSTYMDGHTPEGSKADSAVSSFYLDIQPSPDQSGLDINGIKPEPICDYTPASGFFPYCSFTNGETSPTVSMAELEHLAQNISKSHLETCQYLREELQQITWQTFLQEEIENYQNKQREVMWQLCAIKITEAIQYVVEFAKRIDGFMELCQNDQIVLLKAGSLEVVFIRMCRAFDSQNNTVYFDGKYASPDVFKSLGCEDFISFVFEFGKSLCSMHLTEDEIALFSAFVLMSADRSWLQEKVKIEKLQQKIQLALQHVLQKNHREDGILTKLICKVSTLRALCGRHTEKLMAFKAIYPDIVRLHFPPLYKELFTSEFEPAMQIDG

Sarcoma-180 [2] = assay: (§1) Elongation of circadian rhythms in dexamethasone-induced mouse Sarcoma-180 cells assessed as increase in Bmal1 period time at 5 uM measured for 1 mins at 10 min interval up to 96 hrs by bioluminescence based Bmal1 promoter-reporter gene assay (reference value: 25.70 +/- 0.30 hrs); format: functional; conditions: time hrs <=96
Sarcoma-180 [3] = assay: Cytotoxicity against mouse Sarcoma-180 cells assessed as reduction in cell proliferation by measuring growth rate at 1 uM measured after 3 days by WST-8 assay relative to control; format: functional
Sarcoma-180 [4] = assay: Cytotoxicity against mouse Sarcoma-180 cells assessed as reduction in cell proliferation at 1 uM measured up to 5 days by WST-8 assay; format: functional, cell-based; conditions: time day <=5
[5] = target: T2, Nuclear receptor ROR-alpha (Mus musculus, UniProt P51448); assay: Inverse agonist activity at RORalpha in mouse NIH3T3 cells incubated for 24 hrs by luminescence based assay; format: cell-based
T2 sequence (P51448 whole entry): T1 sequence (whole entry)

Sarcoma-180 [6] = assay: Transcriptional upregulation of Bmal1 mRNA expression in dexamethasone-induced mouse Sarcoma-180 cells at 5 uM measured after 24 hrs by RT-qPCR analysis relative to control; format: functional
Sarcoma-180 [7] = assay: Elongation of circadian rhythms in dexamethasone-induced mouse Sarcoma-180 cells assessed as increase in Bmal1 period length measured for 1 mins at 10 min interval up to 96 hrs by bioluminescence based Bmal1 promoter-reporter gene assay; format: functional, cell-based; conditions: dose 1-5 µM, time hrs <=96
NIH3T3 [8] = assay: Transcriptional upregulation of Bmal1 mRNA expression in dexamethasone-induced mouse NIH3T3 cells at 1 uM measured after 24 hrs by RT-qPCR analysis relative to control; format: functional
NIH3T3 [9] = assay: Transcriptional upregulation of […] mRNA expression in dexamethasone-induced mouse NIH3T3 cells at 5 uM measured after 24 hrs by qPCR analysis relative to control; format: functional
Sarcoma-180 [10] = assay: Cytotoxicity against mouse Sarcoma-180 cells assessed as reduction in cell proliferation at 5 uM measured up to 5 days by WST-8 assay; format: functional, cell-based; conditions: time day <=5
NIH3T3 [11] = assay: Transcriptional upregulation of Rora mRNA expression in dexamethasone-induced mouse NIH3T3 cells at 15 uM measured after 24 hrs by qPCR analysis relative to control; format: functional
MEF [12] = assay: as §1, with “embryonic fibroblasts expressing PER2-luc gene” for “Sarcoma-180 cells”, “PER2” for “Bmal1”, “25” for “5”, “23.17” for “25.70”, “0.10” for “0.30”; format: functional; conditions: time hrs <=96
[13] = Induction of Bmal1 promotor activity in dexamethasone-induced mouse NIH3T3 cells transfected with Bmal1 promotor-reporter plasmids at 15 uM measured after 24 hrs by bioluminescence assay relative to control; format: functional
NIH3T3 [14] = assay: Transcriptional upregulation of […] mRNA expression in dexamethasone-induced mouse NIH3T3 cells at 15 uM measured after 24 hrs by qPCR analysis relative to control; format: functional
MEF [15] = assay: as §1, with “embryonic fibroblasts expressing PER2-luc gene” for “Sarcoma-180 cells”, “PER2” for “Bmal1”, “23.17” for “25.70”, “0.10” for “0.30”; format: functional; conditions: time hrs <=96
NIH3T3 [16] = assay: Transcriptional upregulation of Rora mRNA expression in dexamethasone-induced mouse NIH3T3 cells at 5 uM measured after 24 hrs by qPCR analysis relative to control; format: functional
NIH3T3 [17] = assay: Elongation of circadian rhythms in dexamethasone-induced mouse NIH3T3 cells assessed as increase in Bmal1 period time at 1 uM measured for 1 mins at 10 min interval up to 96 hrs by dual luciferase reporter gene assay (reference value: 25.02 +/- 0.15 hrs); format: functional; conditions: time hrs <=96
NIH3T3 [18] = assay: Transcriptional upregulation of Bmal1 mRNA expression in dexamethasone-induced mouse NIH3T3 cells at 5 uM measured after 24 hrs by RT-qPCR analysis relative to control; format: functional
Sarcoma-180 [19] = assay: Elongation of circadian rhythms in dexamethasone-induced mouse Sarcoma-180 cells assessed as increase in Bmal1 period length at 1 to 5 uM measured for 1 mins at 10 min interval up to 96 hrs by bioluminescence based Bmal1 promoter-reporter gene assay; format: functional, cell-based; conditions: dose 1-5 µM, time hrs <=96
MEF [20] = assay: as §1, with “embryonic fibroblasts expressing PER2-luc gene” for “Sarcoma-180 cells”, “PER2” for “Bmal1”, “1.67” for “5”, “23.17” for “25.70”, “0.10” for “0.30”; format: functional; conditions: time hrs <=96
MEF [21] = assay: as §1, with “embryonic fibroblasts expressing PER2-luc gene” for “Sarcoma-180 cells”, “PER2” for “Bmal1”, “1” for “5”, “23.17” for “25.70”, “0.10” for “0.30”; format: functional; conditions: time hrs <=96
NIH3T3 [22] = assay: Elongation of circadian rhythms in dexamethasone-induced mouse NIH3T3 cells assessed as increase in Bmal1 period time at 5 uM measured for 1 mins at 10 min interval up to 96 hrs by dual luciferase reporter gene assay (reference value: 25.02 +/- 0.15 hrs); format: functional; conditions: time hrs <=96
Sarcoma-180 [23] = assay: Transcriptional upregulation of Bmal1 mRNA expression in dexamethasone-induced mouse Sarcoma-180 cells at 1 uM measured after 24 hrs by RT-qPCR analysis relative to control; format: functional
[24] = Induction of Bmal1 promotor activity in dexamethasone-induced mouse NIH3T3 cells transfected with Bmal1 promotor-reporter plasmids at 5 uM measured after 24 hrs by bioluminescence assay relative to control; format: functional

Compound: CC1=C(CO)C(=O)O[C@@H]([C@@H](C)[C@H]2CC[C@H]3[C@@H]4C[C@H]5O[C@]56[C@@H](O)C=CC(=O)[C@]6(C)[C@H]4CC[C@]23C)C1
- Activity [1]: inactive
- Activity (Sarcoma-180 [2]): Active
- Activity (Sarcoma-180 [3]; time 3.0 day): Active
- Activity (Sarcoma-180 [4]): Active

Compound: CC(C)CCC[C@@H](C)[C@H]1CC[C@H]2C3=CC=C4C[C@@H](O)CC[C@]4(C)[C@H]3CC[C@]12C
- Activity ([1]; filed as agonist): Active

Compound: CO[C@H]1CC(=O)[C@]2(C)[C@H]3CC[C@]4(C)[C@@H]([C@H](C)[C@H]5CC(C)=C(CO)C(=O)O5)CC[C@H]4[C@@H]3C[C@H]3O[C@]32[C@H]1O
- IC50 [5]: 11.3 µM
- fold change (FC) (Sarcoma-180 [6]): 2.13
- Activity (Sarcoma-180 [7]): Dose-Dependent Effect
- Activity (NIH3T3 [8]): 1.43 fold change
- fold change (FC) (NIH3T3 [9]): 1.2
- Activity (Sarcoma-180 [10]): Active
- fold change (FC) (NIH3T3 [11]): 1.68
- Time (MEF [12]): 26.11 h
- Time (Sarcoma-180 [2]): 31.7 h
- fold change (FC) [13]: 1.83
- fold change (FC) (NIH3T3 [14]): 1.57
- Time (MEF [15]): 25.36 h
- fold change (FC) (NIH3T3 [16]): 1.61
- Activity (Sarcoma-180 [3]; time 3 day): 59.8%
- Time (NIH3T3 [17]): 25.01 h
- Activity (NIH3T3 [18]): 1.75 fold change
- Activity (Sarcoma-180 [19]): Active
- Time (MEF [20]): 24.17 h
- Time (MEF [21]): 22.98 h
- Time (NIH3T3 [22]): 26.06 h
- Activity (Sarcoma-180 [4]): Active
- fold change (FC) (Sarcoma-180 [23]): 1.34
- fold change (FC) [24]: 1.32
